According to patent US20200316064A1, “CYCLIN-DEPENDENT KINASE 2 BIOMARKERS AND USES THEREOF” (Incyte Corporation, priority 2019, published 2020):

These compounds were tested against T1, CDK2/Cyclin E1 (Homo sapiens, UniProt P24941) (assay: CDK2/Cyclin E1 HTRF enzyme activity assay (Example A)). Settings: 1 mM ATP.
T1 construct: utilize full-length human CDK2 co-expressed as N-terminal GST-tagged protein; GST (N); purchased Carna 04-165; host or cells: baculovirus expression system
Format: biochemical
Procedure: CDK2/Cyclin E1 enzyme activity assays utilize full-length human CDK2 co-expressed as N-terminal GST-tagged protein with FLAG-Cyclin E1 in a baculovirus expression system (Carna Product Number 04-165). Assays are conducted in white 384-well polystyrene plates in a final reaction volume of 8 μL. CDK2/Cyclin E1 (0.25 nM) is incubated with compounds (40 nL serially diluted in DMSO) in the presence of ATP (50 μM or 1 mM) and 50 nM ULight™-labeled eIF4E-binding protein 1 (THR37/46) peptide (PerkinElmer) in assay buffer (containing 50 mM HEPES pH 7.5, 1 mM EGTA, 10 mM MgC2, 2 mM DTT, 0.05 mg/mL BSA, and 0.01% Tween 20) for 60 minutes at room temperature. The reactions are stopped by the addition of EDTA and Europium-labeled anti-phospho-4E-BP1 antibody (PerkinElmer), for a final concentration of 15 mM and 1.5 nM, respectively. HTRF signals are read after 1 hour at room temperature on a PHERAstar FS plate reader (BMG Labtech). Data is analyzed with IDBS XLFit and GraphPad Prism 5.0 software using a three or four parameter dose response curve to determine IC50 for each compound.

| Compound | IC50 |
| --- | --- |
| CCC(C(F)F)N1C(=O)C(C)(C)Cc2cnc(NC3CCN(S(C)(=O)=O)CC3)nc21 (racemic) [Example A4, 8-(1,1-difluorobutane-2-yl)-6,6-dimethyl-2-((1-(methylsulfonyl)piperidin-4-yl)amino)-5,8-dihydropyrido[2,3-d]pyrimidin-7(6H)-one] | 50 to 100 nM |
| CC1(C)Cc2cnc(NC3CCN(S(C)(=O)=O)CC3)nc2N(C2CCOC2)C1=O (racemic) [Example A6, 6,6-dimethyl-2-((1-(methylsulfonyl)piperidin-4-yl)amino)-8-(tetrahydrofuran-3-yl)-5,8-dihydropyrido[2,3-d]pyrimidin-7(6H)-one] | 100 to 500 nM |
| CC1(C)Cc2cnc(NC3CCN(S(C)(=O)=O)CC3)nc2N(c2ccccc2)C1=O [Example A3, 6,6-dimethyl-2-((1-(methylsulfonyl)piperidin-4-yl)amino)-8-phenyl-5,8-dihydropyrido[2,3-d]pyrimidin-7(6H)-one] | 100 to 500 nM |
| Cn1nccc1CN1C(=O)C(C)(C)Cc2cnc(NC3CCN(S(C)(=O)=O)CC3)nc21 [Example A5, 6,6-dimethyl-8-((1-methyl-1H-pyrazol-5-yl)methyl)-2-((1-(methylsulfonyl)piperidin-4-yl)amino)-5,8-dihydropyrido[2,3-d]pyrimidin-7(6H)-one] | 100 to 500 nM |
| CC1CC(Nc2ncc3c(n2)N(C2CCCC2)C(=O)C32CC2)CCN1S(C)(=O)=O (stereo not shown) [Example B1, 7′-cyclopentyl-2′-((2-methyl-1-(methylsulfonyl)piperidin-4-yl)amino)spiro[cyclopropane-1,5′-pyrrolo[2,3-d]pyrimidin]-6′(7′H)-one] | 100 to 500 nM |
| CS(=O)(=O)N1CCC(Nc2ncc3c(n2)N(C2CCCC2)C(=O)C32CC2)CC1 [Example B2, 7′-cyclopentyl-2′-((1-(methylsulfonyl)piperidin-4-yl)amino)spiro[cyclopropane-1,5′-pyrrolo[2,3-d]pyrimidin]-6′(7′H)-one] | 100 to 500 nM |
| O=C1N(C2CCCC2)c2nc(NC3CCN(S(=O)(=O)C4CCOCC4)CC3)ncc2C12CC2 [Example B4, 7′-cyclopentyl-2′-((1-((tetrahydro-2H-pyran-4-yl)sulfonyl)piperidin-4-yl)amino)spiro[cyclopropane-1,5′-pyrrolo[2,3-d]pyrimidin]-6′(7′H)-one] | 100 to 500 nM |
| O=C1N(C2CCCC2)c2nc(NC3CCN(S(=O)(=O)c4ccc(Cl)cc4)CC3)ncc2C12CC2 [Example B6, 2′-((1-((4-chlorophenyl)sulfonyl)piperidin-4-yl)amino)-7′-cyclopentylspiro[cyclopropane-1,5′-pyrrolo[2,3-d]pyrimidin]-6′(7′H)-one] | 50 to 100 nM |
| Cc1ccccc1N1C(=O)C2(CC2)c2cnc(NC3CCN(S(C)(=O)=O)CC3)nc21 [Example B9, 2′-((1-(methylsulfonyl)piperidin-4-yl)amino)-7′-(o-tolyl)spiro[cyclopropane-1,5′-pyrrolo[2,3-d]pyrimidin]-6′(7′H)-one] | 100 to 500 nM |
| Cc1c(N2C(=O)C3(CC3)c3cnc(NC4CCN(S(C)(=O)=O)CC4)nc32)cnn1C [Example B11, 7′-(1,5-dimethyl-1H-pyrazol-4-yl)-2′-((1-(methylsulfonyl)piperidin-4-yl)amino)spiro[cyclopropane-1,5′-pyrrolo[2,3-d]pyrimidin]-6′(7H)-one] | 50 to 100 nM |
| O=C1N([C@@H]2CCC[C@@H](O)C2)c2nc(NC3CCN(S(=O)(=O)c4cccc(N5CCC5)n4)CC3)ncc2C12CC2 [Example B13, 2′-((1-((6-(azetidin-1-yl)pyridin-2-yl)sulfonyl)piperidin-4-yl)amino)-7′-((1R,3R)-3-hydroxycyclohexyl)spiro[cyclopropane-1,5′-pyrrolo[2,3-d]pyrimidin]-6′(7′H)-one] | ≤ 50 nM |
| C[C@@H](C1CC1)N1C(=O)C2(CC2)c2cnc(NC3CCN(S(=O)(=O)c4ncc[nH]4)CC3)nc21 [Example B14, (S)-2′-((1-((1H-imidazol-2-yl)sulfonyl)piperidin-4-yl)amino)-7′-(1-cyclopropylethyl)spiro[cyclopropane-1,5′-pyrrolo[2,3-d]pyrimidin]-6′(7′H)-one] | ≤ 50 nM |
| C[C@@H](C1CC1)N1C(=O)C2(CC2)c2cnc(NC3CCN(S(=O)(=O)c4ccc(=O)[nH]c4)CC3)nc21 [Example B15, (S)-7′-(1-cyclopropylethyl)-2′-((1-((6-oxo-1,6-dihydropyridin-3-yl)sulfonyl)piperidin-4-yl)amino)spiro[cyclopropane-1,5′-pyrrolo[2,3-d]pyrimidin]-6′(7′H)-one] | ≤ 50 nM |
| CCN1CC(n2cc(S(=O)(=O)N3CCC(Nc4ncc5c(n4)N([C@@H](C)C4CC4)C(=O)C54CC4)CC3)cn2)C1 [Example B16, (S)-7′-(1-cyclopropylethyl)-2′-((1-((1-(1-ethylazetidin-3-yl)-1H-pyrazol-4-yl)sulfonyl)piperidin-4-yl)amino)spiro[cyclopropane-1,5′-pyrrolo[2,3-d]pyrimidin]-6′(7′H)-one] | ≤ 50 nM |
| O=C1N(c2cc3c(cc2Cl)CNCC3)c2nc(NC3CCN(S(=O)(=O)c4ncc[nH]4)CC3)ncc2C12CC2 [Example B18, 2′-((1-((1H-imidazol-2-yl)sulfonyl)piperidin-4-yl)amino)-7′-(7-chloro-1,2,3,4-tetrahydroisoquinolin-6-yl)spiro[cyclopropane-1,5′-pyrrolo[2,3-d]pyrimidin]-6′(7′H)-one] | ≤ 50 nM |
| CCn1cnc(S(=O)(=O)N2CCC(Nc3ncc4c(n3)N(c3cc(F)ccc3Cl)C(=O)C43CC3)CC2)c1 [Example B19, 7′-(2-chloro-5-fluorophenyl)-2′-((1-((1-ethyl-1H-imidazol-4-yl)sulfonyl)piperidin-4-yl)amino)spiro[cyclopropane-1,5′-pyrrolo[2,3-d]pyrimidin]-6′(7′H)-one] | ≤ 50 nM |

More lines, now with the values ahead:

| IC50 | Compound |
| --- | --- |
| ≤ 50 nM | CC1CCCC1N1C(=O)C2(CC2)c2cnc(NC3CCN(S(C)(=O)=O)CC3)nc21 (mixture of isomers) [Example B8, 7′-(2-methylcyclopentyl)-2′-((1-(methylsulfonyl)piperidin-4-yl)amino)spiro[cyclopropane-1,5′-pyrrolo[2,3-d]pyrimidin]-6′(7′H)-one] |
| ≤ 50 nM | CCC(C(F)F)N1C(=O)C2(CC2)c2cnc(NC3CCN(S(C)(=O)=O)CC3)nc21 (racemic) [Example B10, 7′-(1,1-difluorobutane-2-yl)-2′-((1-(methylsulfonyl)piperidin-4-yl)amino)spiro[cyclopropane-1,5′-pyrrolo[2,3-d]pyrimidin]-6′(7′H)-one] |
| ≤ 50 nM | C[C@@]1(O)CCC[C@H]1N1C(=O)C2(CC2)c2cnc(NC3CCN(S(=O)(=O)c4ncc[nH]4)CC3)nc21 (relative stereo) [Example B17, 2′-((1-((1H-imidazol-2-yl)sulfonyl)piperidin-4-yl)amino)-7′-((trans)-2-hydroxy-2-methylcyclopentyl)spiro[cyclopropane-1,5′-pyrrolo[2,3-d]pyrimidin]-6′(7′H)-one] |
| ≤ 50 nM | CC1(C)Cc2cnc(Nc3ccc(S(N)(=O)=O)cc3)nc2N(C2CCCC2)C1=O [Example A1, 4-((8-cyclopentyl-6,6-dimethyl-7-oxo-5,6,7,8-tetrahydropyrido[2,3-d]pyrimidin-2-yl)amino)benzenesulfonamide] |
| ≤ 50 nM | CC1(C)Cc2cnc(NC3CCN(S(C)(=O)=O)CC3)nc2N(C2CCCC2)C1=O [Example A2, 8-cyclopentyl-6,6-dimethyl-2-((1-(methylsulfonyl)piperidin-4-yl)amino)-5,8-dihydropyrido[2,3-d]pyrimidin-7(6H)-one] |
| ≤ 50 nM | O=C1N(C2CCCC2)c2nc(NC3CCN(S(=O)(=O)C4CC4)CC3)ncc2C12CC2 [Example B3, 7′-cyclopentyl-2′-((1-(cyclopropylsulfonyl)piperidin-4-yl)amino)spiro[cyclopropane-1,5′-pyrrolo[2,3-d]pyrimidin]-6′(7′H)-one] |
| ≤ 50 nM | O=C1N(C2CCCC2)c2nc(NC3CCN(S(=O)(=O)c4cccnc4)CC3)ncc2C12CC2 [Example B5, 7′-cyclopentyl-2′-((1-(pyridin-3-ylsulfonyl)piperidin-4-yl)amino)spiro[cyclopropane-1,5′-pyrrolo[2,3-d]pyrimidin]-6′(7′H)-one] |
| ≤ 50 nM | Cn1cc(S(=O)(=O)N2CCC(Nc3ncc4c(n3)N(C3CCCC3)C(=O)C43CC3)CC2)cn1 [Example B7, 7′-cyclopentyl-2′-((1-((1-methyl-1H-pyrazol-4-yl)sulfonyl)piperidin-4-yl)amino)spiro[cyclopropane-1,5′-pyrrolo[2,3-d]pyrimidin]-6′(7′H)-one] |
| ≤ 50 nM | Cn1cc(S(=O)(=O)N2CCC(Nc3ncc4c(n3)N([C@@H]3CCC[C@@H](O)C3)C(=O)C43CC3)CC2)cn1 [Example B12, 7′-((1R,3R)-3-hydroxycyclohexyl)-2′-((1-((1-methyl-1H-pyrazol-4-yl)sulfonyl)piperidin-4-yl)amino)spiro[cyclopropane-1,5′-pyrrolo[2,3-d]pyrimidin]-6′(7′H)-one] |
